The source of these data is ChEMBL document CHEMBL5338754, “Identification of Binding Sites in the Nucleotide-Binding Domain of P-Glycoprotein for a Potent and Nontoxic Modulator, the Amine-Containing Monomeric Flavonoid FM04” (J Med Chem, 2023).

For data set [1], the target named is T1, ATP-dependent translocase ABCB1 (Homo sapiens, UniProt P08183). As to the kind of experiment: Negative allosteric modulator activity at P-gp in human LCC6MDR cells overexpressing P-gp assessed as reversal of P-gp mediated paclitaxel resistance activity by measuring relative fold at 1 uM incubated for 5 days by MTS assay. It is filed as cell-based. Particulars: 120 h, time 5 day; call rule not given here. Background: Tetrazolium dyes change colour on reduction, which living cells bring about.
T1 sequence (P08183 whole entry): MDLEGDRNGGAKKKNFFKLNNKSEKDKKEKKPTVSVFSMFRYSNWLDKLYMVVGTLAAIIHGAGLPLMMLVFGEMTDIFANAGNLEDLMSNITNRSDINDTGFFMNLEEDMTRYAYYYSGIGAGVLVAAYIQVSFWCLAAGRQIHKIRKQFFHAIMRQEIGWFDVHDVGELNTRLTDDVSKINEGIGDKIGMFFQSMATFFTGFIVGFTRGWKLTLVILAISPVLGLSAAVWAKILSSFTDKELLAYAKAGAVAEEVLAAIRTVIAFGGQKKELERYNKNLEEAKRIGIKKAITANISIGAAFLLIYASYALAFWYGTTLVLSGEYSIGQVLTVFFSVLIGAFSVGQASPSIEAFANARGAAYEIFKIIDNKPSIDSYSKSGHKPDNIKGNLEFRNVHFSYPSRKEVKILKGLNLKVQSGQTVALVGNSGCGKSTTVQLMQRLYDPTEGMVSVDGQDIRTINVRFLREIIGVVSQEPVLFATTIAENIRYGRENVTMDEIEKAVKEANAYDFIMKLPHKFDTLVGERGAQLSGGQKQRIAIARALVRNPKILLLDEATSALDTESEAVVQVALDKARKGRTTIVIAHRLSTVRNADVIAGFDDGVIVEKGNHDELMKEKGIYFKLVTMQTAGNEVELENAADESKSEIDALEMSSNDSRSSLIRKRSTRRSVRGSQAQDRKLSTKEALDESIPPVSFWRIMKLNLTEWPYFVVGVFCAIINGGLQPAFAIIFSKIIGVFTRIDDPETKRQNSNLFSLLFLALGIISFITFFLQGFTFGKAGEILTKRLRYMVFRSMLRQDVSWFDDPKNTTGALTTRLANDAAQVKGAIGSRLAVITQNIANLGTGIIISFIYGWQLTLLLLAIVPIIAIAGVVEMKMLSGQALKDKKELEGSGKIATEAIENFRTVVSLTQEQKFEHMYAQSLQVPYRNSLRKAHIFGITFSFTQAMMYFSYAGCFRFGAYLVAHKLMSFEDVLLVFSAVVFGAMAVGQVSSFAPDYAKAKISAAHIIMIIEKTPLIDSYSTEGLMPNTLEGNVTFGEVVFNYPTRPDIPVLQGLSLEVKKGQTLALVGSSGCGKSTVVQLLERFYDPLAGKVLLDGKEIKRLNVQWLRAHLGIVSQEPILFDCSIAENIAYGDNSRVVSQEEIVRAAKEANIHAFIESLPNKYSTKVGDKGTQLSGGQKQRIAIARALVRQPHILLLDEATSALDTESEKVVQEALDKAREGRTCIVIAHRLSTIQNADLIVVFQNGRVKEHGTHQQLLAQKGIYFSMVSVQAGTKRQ

For data set [2], the target named is T1, ATP-dependent translocase ABCB1. As to the kind of experiment: Binding affinity to human P-glycoprotein expressed in LCC6MDR cells assessed as stabilization of protein by measuring fluorescence at 1 uM incubated for 1 hr by Western blotting analysis. The class given is cell-based. (Immunoblotting shows a protein as a band on a membrane.)
For data set [3] the target is unchanged. Kind of data set: Binding affinity to P-glycoprotein in human LCC6MDR cells assessed as stabilization of protein by measuring fluorescence at 1 uM incubated for 1 hr by Western blotting analysis. The class given is cell-based.
For data set [4] the target is unchanged. Kind of data set: Negative allosteric modulator activity at P-gp in human LCC6MDR cells assessed as increase in intracellular doxorubicin accumulation using doxorubicin as substrate incubated for 150 mins by microplate reader assay. It is filed as cell-based. Particulars: 2.5 h.
Data set [5] has as its target T2, ATP-dependent translocase ABCB1 (Mus musculus, UniProt P06795). As to the kind of experiment: Binding affinity to mouse P-glycoprotein expressed in Pichia pastoris assessed as stabilization of protein by measuring fluorescence at 1 uM by Western blotting analysis.
The target in data set [6] is T2, ATP-dependent translocase ABCB1. Kind of data set: Binding affinity to mouse P-glycoprotein expressed in Pichia pastoris assessed as stabilization of protein by measuring fluorescence at 1000 uM incubated for 2 hr by Streptavidin-pull down blotting assay.
Data set [7] shares this target. Kind of data set: Displacement of FM04 from mouse P-glycoprotein expressed in Pichia pastoris at 1 uM by competitive binding assay.
Data set [8] addresses T1, ATP-dependent translocase ABCB1. As to the kind of experiment: Binding affinity to human P-glycoprotein expressed in LCC6MDR cells assessed as stabilization of protein by measuring fluorescence at 0.1 to 1 uM by Western blotting analysis. The class given is cell-based. The settings on record: dose 0.1-1 µM.
Data set [9] deals with T2, ATP-dependent translocase ABCB1. As to the kind of experiment: Binding affinity to mouse P-glycoprotein expressed in Pichia pastoris assessed as stabilization of protein by measuring fluorescence at 100 uM incubated for 2 hr by Streptavidin-pull down blotting assay.
Data set [10] deals with T1, ATP-dependent translocase ABCB1. Kind of data set: Displacement of FM-04 from human P-glycoprotein expressed in LCC6MDR cells at 1 uM by competitive binding assay. It is filed as cell-based.
Data set [11] addresses T2, ATP-dependent translocase ABCB1. Kind of data set: Binding affinity to biotin-labeled mouse P-glycoprotein expressed in Pichia pastoris assessed as stabilization of protein by measuring fluorescence at 100 uM incubated for 2 hr by Streptavidin-HRP blotting assay.
Data set [12] has the same target. As to the kind of experiment: Binding affinity to mouse P-glycoprotein expressed in Pichia pastoris assessed as stabilization of protein by measuring fluorescence at 100 uM incubated for 2 hr by Streptavidin-HRP blotting assay.

T2 sequence (P06795 whole entry): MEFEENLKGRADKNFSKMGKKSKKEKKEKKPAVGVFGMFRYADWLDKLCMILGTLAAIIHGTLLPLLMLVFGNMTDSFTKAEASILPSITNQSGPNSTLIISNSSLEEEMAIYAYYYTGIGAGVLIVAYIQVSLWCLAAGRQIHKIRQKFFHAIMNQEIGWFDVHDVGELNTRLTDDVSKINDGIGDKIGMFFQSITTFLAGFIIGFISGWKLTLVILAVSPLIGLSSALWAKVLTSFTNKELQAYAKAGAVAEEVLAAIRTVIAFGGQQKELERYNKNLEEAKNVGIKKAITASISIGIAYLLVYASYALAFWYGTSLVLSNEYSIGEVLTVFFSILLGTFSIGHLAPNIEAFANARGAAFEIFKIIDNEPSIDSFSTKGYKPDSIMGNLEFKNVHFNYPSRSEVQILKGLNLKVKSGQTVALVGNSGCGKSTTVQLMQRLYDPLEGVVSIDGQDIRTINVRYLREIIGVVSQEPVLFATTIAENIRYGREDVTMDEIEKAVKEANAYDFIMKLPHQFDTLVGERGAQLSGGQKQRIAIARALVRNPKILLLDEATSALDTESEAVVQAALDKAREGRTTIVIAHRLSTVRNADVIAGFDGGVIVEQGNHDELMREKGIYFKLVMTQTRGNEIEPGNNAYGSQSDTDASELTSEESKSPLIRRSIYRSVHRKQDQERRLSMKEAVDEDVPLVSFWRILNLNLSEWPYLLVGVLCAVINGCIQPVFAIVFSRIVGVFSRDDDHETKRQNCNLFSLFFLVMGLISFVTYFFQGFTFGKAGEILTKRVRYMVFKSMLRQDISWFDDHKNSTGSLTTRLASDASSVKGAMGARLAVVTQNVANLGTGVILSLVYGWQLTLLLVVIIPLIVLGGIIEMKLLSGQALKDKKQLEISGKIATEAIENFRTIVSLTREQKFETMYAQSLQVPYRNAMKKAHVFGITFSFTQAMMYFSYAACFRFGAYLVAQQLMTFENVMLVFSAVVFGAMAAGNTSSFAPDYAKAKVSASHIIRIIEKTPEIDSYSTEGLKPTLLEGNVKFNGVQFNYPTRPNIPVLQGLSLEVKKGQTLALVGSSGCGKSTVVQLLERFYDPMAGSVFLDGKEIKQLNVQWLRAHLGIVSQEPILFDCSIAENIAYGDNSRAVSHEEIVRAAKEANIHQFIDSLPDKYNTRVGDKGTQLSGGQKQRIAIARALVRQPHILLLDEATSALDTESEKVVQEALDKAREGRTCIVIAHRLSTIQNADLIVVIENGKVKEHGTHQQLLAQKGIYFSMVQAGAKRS

Regarding `O=c1cc(-c2ccc(OCCOCCOCCOCCOc3ccc(-c4cc(=O)c5ccccc5o4)cc3)cc2)oc2ccccc12`, in [1], the “fold change (FC)” value is recorded as 28.

`[N-]=[N+]=NCc1cc(CNCCOCCOc2ccc(-c3cc(=O)c4ccccc4o3)cc2)cc(N=[N+]=[N-])c1`: the Activity result in data set [2] was “Active”; in data set [3], “Not Active”; in data set [4], “Active”. In data set [1], the “fold change (FC)” value was determined as 61.7.

With `O=c1cc(-c2ccc(OCCOCCOCCOCCOc3ccc(-c4cc(=O)c5c(O)cc(O)cc5o4)cc3)cc2)oc2cc(O)cc(O)c12`, the “fold change (FC)” value in [1] is listed as 11.

For the compound `C#CCNc1cc(C)cc2c(=O)cc(-c3ccc(OCCOCCN(Cc4ccc(C5(C(F)(F)F)N=N5)cc4)Cc4ccc(C5(C(F)(F)F)N=N5)cc4)cc3)oc12`, the “fold change (FC)” value in data set [1] was 0.4.

Turning to `O=c1cc(-c2ccc(O)cc2)oc2cc(O)cc(O)c12` [APIGENIN], the “fold change (FC)” value in [1] amounted to 1.

As for `C#CCN(CCOCCOc1ccc(-c2cc(=O)c3ccccc3o2)cc1)Cc1ccc(C2(C(F)(F)F)N=N2)cc1`, the Activity entry in data set [2] and in data set [3] was “Not Active” throughout. Moreover, the “fold change (FC)” value in [1] was determined as 2.3.

For the compound `O=c1cc(-c2ccc(OCCOCCNCc3ccc(C4(C(F)(F)F)N=N4)cc3)cc2)oc2ccccc12`, the outcome in data set [4] was Active. Besides, the “fold change (FC)” value in [1] is reported as 56.3.

As for `O=c1cc(-c2ccc(OCCOCCN(CCOCCOc3ccc(-c4cc(=O)c5ccccc5o4)cc3)Cc3ccccc3)cc2)oc2ccccc12`, the “fold change (FC)” value in data set [1] stood at 68.

Consider `C#CCOc1cccc2oc(-c3ccc(OCCOCCNCc4ccc(C5(C(F)(F)F)N=N5)cc4)cc3)cc(=O)c12`, for which the Activity entry is on record as “Active” in [2]; “Active” in data set [5]; “Not Active” in data set [3]; “Active” in data set [4]; “Active” in data set [6]; “Not Active” in data set [7]. In addition, the Activity result in data set [8] is recorded as “Dose-Dependent Effect”; in [9], “Active”; in data set [10] it was “Not Active”; in [11], “Active”; in data set [12] it was “Not Active”. Besides, in data set [1], the “fold change (FC)” value was 92.6.

Turning to `O=c1cc(-c2ccc(OCCOCCN(Cc3ccc(C4(C(F)(F)F)N=N4)cc3)Cc3ccc(C4(C(F)(F)F)N=N4)cc3)cc2)oc2ccccc12`, the “fold change (FC)” value in [1] amounted to 0.8.

In the case of `C#CCNc1cc(C)cc2c(=O)cc(-c3ccc(OCCOCCNCc4ccc(C5(C(F)(F)F)N=N5)cc4)cc3)oc12`, the Activity entry in data set [2] and in [3] was “Not Active” in each case. In addition, in data set [1], the “fold change (FC)” value is recorded as 0.5.
